# Measurements as given in patent US6737383B1, “Herbicidal oxadiazolidines” (priority 1999, dated 2004).
# Experiments:
# crabgrass = assay: Test B pre/postemergence crabgrass; format: in vivo, Digitaria sanguinalis
# In short: (§1)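 Test chemicals in a non-phytotoxic solvent mixture with surfactant were sprayed preemergence onto planted seeds and postemergence onto plants 2 to 18 cm tall (1- to 4-leaf stage). After twelve to sixteen days in a greenhouse, injury was visually rated against untreated controls from 0 (no effect) to 10 (complete control).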
# morningglory = assay: Test B pre/postemergence morningglory; format: in vivo, Ipomoea hederacea
# In short: as §1
# giant foxtail = assay: Test B pre/postemergence giant foxtail; format: in vivo, Setaria faberii
# In short: as §1
# blackgrass = assay: Test B pre/postemergence blackgrass; format: in vivo, Alopecurus myosuroides
# In short: as §1
# purple nutsedge = assay: Test B pre/postemergence purple nutsedge; format: in vivo, Cyperus rotundus
# In short: as §1
# pigweed = assay: Test B pre/postemergence pigweed; format: in vivo, Amaranthus retroflexus
# In short: as §1
# corn = assay: Test B pre/postemergence corn; format: in vivo, Zea mays
# In short: as §1
# bedstraw = assay: Test B pre/postemergence bedstraw; format: in vivo, Galium aparine; conditions: Preemergence
# In short: as §1
# rape = assay: Test B pre/postemergence rape; format: in vivo, Brassica napus
# In short: as §1
# wild oat = assay: Test B pre/postemergence wild oat; format: in vivo, Avena fatua
# In short: as §1
# cocklebur = assay: Test B pre/postemergence cocklebur; format: in vivo, Xanthium strumarium
# In short: as §1
# velvetleaf = assay: Test B pre/postemergence velvetleaf; format: in vivo, Abutilon theophrasti
# In short: as §1
# surinam grass = assay: Test B pre/postemergence surinam grass; format: in vivo, Brachiaria decumbens
# In short: as §1
# wheat = assay: Test B pre/postemergence wheat; format: in vivo, Triticum aestivum
# In short: as §1
# soybean = assay: Test B pre/postemergence soybean; format: in vivo, Glycine max
# In short: as §1
# sugar beet = assay: Test B pre/postemergence sugar beet; format: in vivo, Beta vulgaris
# In short: as §1
# [1] = Postemergence, Rate 62 g/ha, scale 0 to 10, 0 is no effect, 10 is complete control
# [2] = Postemergence, Rate 125 g/ha, scale of 0 to 10 where 0 is no effect and 10 is complete control
# [3] = Preemergence, Rate 125 g/ha, scale of 0 to 10 where 0 is no effect and 10 is complete control
# [4] = Preemergence, Rate 250 g/ha, scale 0 (no effect) to 10 (complete control)
# [5] = Rate 62 g/ha, Preemergence, scale 0 to 10
# [6] = Rate 250 g/ha, Postemergence, scale 0 to 10, 0 is no effect, 10 is complete control
# [7] = Rate 500 g/ha, Postemergence, scale 0 to 10, 0 is no effect, 10 is complete control
# [8] = Rate 500 g/ha, Preemergence, scale 0 to 10 (0 no effect, 10 complete control)
structure (smiles),measurement,setting,value
C#CCCn1c(=O)on(C(=O)N(c2ccc(F)cc2F)C(C)C)c1=O [Compound 744],"Plant response rating, Crabgrass",crabgrass; [1],3
same,Crabgrass plant response rating,crabgrass; [2],4
same,"Plant response rating, Crabgrass",crabgrass; [3],9
same,Crabgrass plant response rating,crabgrass; [4],9
same,Crabgrass plant response rating,crabgrass; [5],9
same,Crabgrass plant response rating,crabgrass; [6],8
same,Crabgrass plant response rating,crabgrass; [7],9
same,Crabgrass plant response rating,crabgrass; [8],10
same,"Plant response rating, Morningglory",morningglory; [1],2
same,Morningglory plant response rating,morningglory; [2],2
same,"Plant response rating, Morningglory",morningglory; [3],0
same,Morningglory plant response rating,morningglory; [4],0
same,Morningglory plant response rating,morningglory; [5],0
same,Morningglory plant response rating,morningglory; [6],2
same,Morningglory plant response rating,morningglory; [7],4
same,Morningglory plant response rating,morningglory; [8],0
same,"Plant response rating, Giant foxtail",giant foxtail; [1],6
same,Giant foxtail plant response rating,giant foxtail; [2],8
same,"Plant response rating, Giant foxtail",giant foxtail; [3],9
same,Giant foxtail plant response rating,giant foxtail; [4],9
same,Giant foxtail plant response rating,giant foxtail; [5],9
same,Giant foxtail plant response rating,giant foxtail; [6],8
same,Giant foxtail plant response rating,giant foxtail; [7],8
same,Giant foxtail plant response rating,giant foxtail; [8],10
same,"Plant response rating, Blackgrass",blackgrass; [1],5
same,Blackgrass plant response rating,blackgrass; [2],5
same,"Plant response rating, Blackgrass",blackgrass; [3],9
same,Blackgrass plant response rating,blackgrass; [4],9
same,Blackgrass plant response rating,blackgrass; [5],6
same,Blackgrass plant response rating,blackgrass; [6],5
same,Blackgrass plant response rating,blackgrass; [7],5
same,Blackgrass plant response rating,blackgrass; [8],9
same,"Plant response rating, Nutsedge",purple nutsedge; [1],0
same,"Plant response rating, Nutsedge",purple nutsedge; [3],0
same,Nutsedge plant response rating,purple nutsedge; [4],5
same,Nutsedge plant response rating,purple nutsedge; [6],3
same,Nutsedge plant response rating,purple nutsedge; [7],6
same,Nutsedge plant response rating,purple nutsedge; [8],7
same,"Plant response rating, Redroot pigweed",pigweed; [1],0
same,Redroot pigweed plant response rating,pigweed; [2],0
same,"Plant response rating, Redroot pigweed",pigweed; [3],8
same,Redroot pigweed plant response rating,pigweed; [4],9
same,Redroot pigweed plant response rating,pigweed; [5],4
same,Redroot pigweed plant response rating,pigweed; [6],0
same,Redroot pigweed plant response rating,pigweed; [7],8
same,Redroot pigweed plant response rating,pigweed; [8],9
same,"Plant response rating, Corn",corn; [1],0
same,Corn plant response rating,corn; [2],0
same,"Plant response rating, Corn",corn; [3],0
same,Corn plant response rating,corn; [4],5
same,Corn plant response rating,corn; [5],0
same,Corn plant response rating,corn; [6],3
same,Corn plant response rating,corn; [7],5
same,Corn plant response rating,corn; [8],7
same,"Plant response rating, Bedstraw","bedstraw; Rate 125 g/ha, scale of 0 to 10 where 0 is no effect and 10 is complete control",0
same,Bedstraw plant response rating,"bedstraw; Rate 250 g/ha, scale 0 (no effect) to 10 (complete control)",0
same,Bedstraw plant response rating,"bedstraw; Rate 62 g/ha, scale 0 to 10",0
same,Bedstraw plant response rating,"bedstraw; Rate 500 g/ha, scale 0 to 10 (0 no effect, 10 complete control)",8
same,"Plant response rating, Rape",rape; [1],0
same,Rape plant response rating,rape; [2],2
same,"Plant response rating, Rape",rape; [3],6
same,Rape plant response rating,rape; [4],6
same,Rape plant response rating,rape; [5],4
same,Rape plant response rating,rape; [6],3
same,Rape plant response rating,rape; [7],8
same,Rape plant response rating,rape; [8],9
same,"Plant response rating, Wild oats",wild oat; [1],0
same,Wild oats plant response rating,wild oat; [2],0
same,"Plant response rating, Wild oats",wild oat; [3],8
same,Wild oats plant response rating,wild oat; [4],9
same,Wild oats plant response rating,wild oat; [5],3
same,Wild oats plant response rating,wild oat; [6],0
same,Wild oats plant response rating,wild oat; [7],2
same,Wild oats plant response rating,wild oat; [8],9
same,"Plant response rating, Cocklebur",cocklebur; [1],0
same,Cocklebur plant response rating,cocklebur; [2],0
same,"Plant response rating, Cocklebur",cocklebur; [3],0
same,Cocklebur plant response rating,cocklebur; [4],0
same,Cocklebur plant response rating,cocklebur; [5],0
same,Cocklebur plant response rating,cocklebur; [6],0
same,Cocklebur plant response rating,cocklebur; [7],0
same,Cocklebur plant response rating,cocklebur; [8],0
same,"Plant response rating, Velvetleaf",velvetleaf; [1],0
same,Velvetleaf plant response rating,velvetleaf; [2],0
same,"Plant response rating, Velvetleaf",velvetleaf; [3],0
same,Velvetleaf plant response rating,velvetleaf; [4],0
same,Velvetleaf plant response rating,velvetleaf; [5],0
same,Velvetleaf plant response rating,velvetleaf; [6],0
same,Velvetleaf plant response rating,velvetleaf; [7],2
same,Velvetleaf plant response rating,velvetleaf; [8],2
same,"Plant response rating, B. signalgrass",surinam grass; [1],0
same,B. signalgrass plant response rating,surinam grass; [2],2
same,B. signalgrass plant response rating,"surinam grass; Preemergence, Rate 62 g/ha, scale of 0 to 10 where 0 is no effect and 10 is complete control",5
same,"Plant response rating, B. signalgrass",surinam grass; [3],8
same,B. signalgrass plant response rating,surinam grass; [4],9
same,B. signalgrass plant response rating,surinam grass; [6],5
same,B. signalgrass plant response rating,surinam grass; [7],6
same,B. signalgrass plant response rating,surinam grass; [8],9
same,"Plant response rating, Wheat",wheat; [1],0
same,Wheat plant response rating,wheat; [2],0
same,"Plant response rating, Wheat",wheat; [3],0
same,Wheat plant response rating,wheat; [4],3
same,Wheat plant response rating,wheat; [5],0
same,Wheat plant response rating,wheat; [6],5
same,Wheat plant response rating,wheat; [7],7
same,Wheat plant response rating,wheat; [8],5
same,"Plant response rating, Soybean",soybean; [1],2
same,Soybean plant response rating,soybean; [2],3
same,"Plant response rating, Soybean",soybean; [3],0
same,Soybean plant response rating,soybean; [4],0
same,Soybean plant response rating,soybean; [5],0
same,Soybean plant response rating,soybean; [6],4
same,Soybean plant response rating,soybean; [7],5
same,Soybean plant response rating,soybean; [8],0
same,"Plant response rating, Sugarbeets",sugar beet; [1],0
same,Sugarbeets plant response rating,sugar beet; [2],0
same,"Plant response rating, Sugarbeets",sugar beet; [3],2
same,Sugarbeets plant response rating,sugar beet; [4],7
same,Sugarbeets plant response rating,sugar beet; [5],0
same,Sugarbeets plant response rating,sugar beet; [6],0
same,Sugarbeets plant response rating,sugar beet; [7],5
same,Sugarbeets plant response rating,sugar beet; [8],7
